Measurements taken from patent publication US11919869B2, “CD73 compounds” (Gilead Sciences, Inc., priority 2021, dated 2024).
Where two headings read alike, the source gives them in different places.

How the values were obtained:
[1] = In vivo rat pharmacokinetics; conditions: Wister Han rats, 100 mg-eq/kg
Description: In Vivo Rat Pharmacokinetics Experiments
In vivo Wister Han rat pharmacokinetic experiments of compound Comparator C and Example 4 were assessed as follows.
Compound Comparator C was dosed as a 100 mg/kg suspension to Wister Han rats (N=3) using the following formulation:30% captisol, 5% soluplus, 65% pH 2 water. Compound 1170997 was dosed separately as a 100 mg-eq/kg (123 mg/kg) solution to Wister Han rats (N=3) using the following formulation: 0.5% Methocel E4M Premium, 0.1% Tween-80, 99.4% Water. Samples were assessed for the presence of Comparator C.
Comparator C and Example 4. […] As is shown in Table 4, the AUC 0-24 h measured for Comparator C in plasma was higher after dosing with Example 4 than the value measured after dosing with an equivalent dose of Comparator C.

[2] = Assay buffer stability (Tris buffer without alkaline phosphatase); type: physicochemical; conditions: 2 μM substrate, Tris buffer pH 7.8 without alkaline phosphatase
Description: (§1) Alkaline phosphatase stability assays were carried out using purified Bovine intestinal alkaline phosphatase. Duplicate sets were performed with a TECAN liquid handler. Assay substrate concentrations were 2 μM. Purified Bovine intestinal alkaline phosphatase was acquired through MilliPore Sigma as a lyophilized powder. Reaction mixtures were prepared by the addition of 2 μL compound (400 μM stock solution in DMSO) into wells of a 96-well plate containing […] Tris buffer (100 mM, pH 7.8, 1 mM MgCl2 and 1 mM ZnCl2) with and without 100 ng/mL purified Bovine intestinal alkaline phosphatase. Samples were assessed at time points of 3, 30, 60, 120, 180 and 240 minutes. At each time point, 25 μL of the reaction mixtures were added into a 96-well plate containing 225 μL of quench solution (99% Acetonitrile with 1% Formic Acid and 100 nM Labetalol as internal standard). The plates containing the quench samples were then vortexed at 1100 RPM for 10 minutes and centrifuged at 4500 RPM for 20 minutes. 150 μL of the resulting supernatant was transferred into a 96-well plate containing 150 μL of water and vortexed at 1100 RPM for 3 minutes to mix.
(§2) Samples were analyzed with a Leap HTC Autosampler and a Dionex UltiMate 3000 HPLC system interfaced to a Thermo Q-Exactive mass spectrometer operating in positive ion electrospray mode. A Thermo Scientific Hypersil GOLD (1.9 μM particle size, 50×2.1 mm) HPLC column was used and mobile phase was pumped at 0.5 mL/min. Elution of analytes was achieved by a series of linear gradients of acetonitrile in water containing 0.1% (v/v) formic acid. Quantification was by analyte/internal standard peak area ratio (PAR).

[3] = Thermodynamic solubility in FaSSIF and FeSSIF; type: physicochemical; conditions: 20 hours, ambient temperature
Description: Thermodynamic Solubility in FASSIF and FESSIF.
The aqueous solubility of compounds over a time of 20 hours was assessed. Solubility was determined at ambient temperature in buffered fasted-state simulated intestinal fluid (FaSSIF, pH 6.5) and buffered fed-state simulated intestinal fluid (FeSSIF, pH 5.0) prepared in-house using BioRelevant Simulated Intestinal Fluid (SIF) powder. Solids were added to FaSSIF or FeSSIF in 1.5-mL Eppendorf tubes, vortexed for 1 minute, then agitated for 20 hours in an Eppendorf ThermoMixer C. To determine concentration in solution, the suspensions were centrifuged for 10 min at 14,800 rpm and supernatants were diluted to a volume of 1 mL with 1:1 v/v acetonitrile:water. All diluted supernatants were analyzed by UPLC using a Waters Acquity UPLC with a PDA UV detector.

[4] = Kinetic solubility at pH 1 and 7; type: physicochemical; conditions: 23 °C, kinetic from dmso stock, 1.0% DMSO
Description: Kinetic Solubility at pH 1 and 7
100-fold dilutions of each compound as DMSO stock solution were prepared by combining 3 μL of DMSO stock with 297 μL of the appropriate media in a Millipore solubility filter plate with 0.45 μM polycarbonate filter membrane using Hamilton Starlet liquid handling. The final DMSO Concentration is 1.0% and maximum theoretical compound concentration is […] (assuming stock concentration of 10 mM). The filter plate was sealed. Following 24-hour incubation at ambient temperature (22.2-23.6° C.), the samples were vacuum filtered, and the filtrates were collected in a 96 well polypropylene plate for analysis. The collection plate was sealed for analysis. Filtrates were injected into the nitrogen detector for quantification. The equimolar nitrogen response of the detector is calibrated using standards which span the dynamic range of the instrument from 0.08 to 4500 μg/ml nitrogen. The filtrates were quantified with respect to this calibration curve. The calculated solubility values are corrected for background nitrogen present in the DMSO, and the media used to prepare the samples

[5] = target: T1, alkaline phosphatase (intestinal) (Bos taurus, UniProt P19111); assay: Alkaline phosphatase stability assay; type: in vitro ADME; conditions: 2 μM substrate, 100 ng/mL purified Bovine intestinal alkaline phosphatase, Tris buffer pH 7.8; read-out: ALP half life
T1 construct: purchased MilliPore Sigma
Description: Alkaline Phosphatase Stability Assay
as §1, §2

T1 sequence (P19111 20-506 limits assumed): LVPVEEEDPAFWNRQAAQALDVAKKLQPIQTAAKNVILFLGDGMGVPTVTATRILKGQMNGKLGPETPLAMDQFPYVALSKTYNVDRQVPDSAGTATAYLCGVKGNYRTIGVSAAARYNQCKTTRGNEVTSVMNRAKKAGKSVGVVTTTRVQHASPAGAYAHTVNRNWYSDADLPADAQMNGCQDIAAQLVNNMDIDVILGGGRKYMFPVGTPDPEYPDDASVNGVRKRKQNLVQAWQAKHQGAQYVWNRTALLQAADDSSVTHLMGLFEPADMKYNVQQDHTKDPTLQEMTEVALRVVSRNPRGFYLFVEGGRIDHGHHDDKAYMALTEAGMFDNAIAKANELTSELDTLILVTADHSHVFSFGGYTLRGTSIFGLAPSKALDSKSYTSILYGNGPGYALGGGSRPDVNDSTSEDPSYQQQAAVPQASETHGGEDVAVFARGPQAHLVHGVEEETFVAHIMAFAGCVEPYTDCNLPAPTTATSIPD

## O=c1[nH]c(=O)n(COP(=O)(O)O)cc1-c1cc([C@H]2C[C@@H]2c2ccc3cnn(CC(F)(F)F)c3c2)c2ncc(F)n2n1 [Example 4, (5-(3-fluoro-8-((1S,2S)-2-(1-(2,2,2-trifluoroethyl)-1H-indazol-6-yl)cyclopropyl)imidazo[1,2-b]pyridazin-6-yl)-2,4-dioxo-3,4-dihydropyrimidin-1(2H)-yl)methyl dihydrogen phosphate]
[1]
  AUC 0-24 h measured for Comparator C in plasma, compared with dosing an equivalent dose of Comparator C: higher
[2]
  half-life at 2 µM: > 1580 min
[3]; fasted-state simulated intestinal fluid pH 6.5
  FaSSIF (pH 6.5): 1100 ug/mL
[3]; fed-state simulated intestinal fluid pH 5.0
  FeSSIF (pH 5.0): >5400 ug/mL
[4]; aqueous buffer, pH 7, 24-hour incubation at ambient temperature, read-out: Kinetic Solubility pH 7
  solubility kinetic at 24 h: > 100 µM
[4]; simulated gastric fluid, pH 1, 24-hour incubation at ambient temperature, read-out: Kinetic Solubility pH 1
  solubility kinetic at 24 h: 96 µM
[5]
  half-life at 2 µM: 4 min
